The results in this text go back to US8273773B2 (priority 2008, dated 2012).

Data set [1] concerns the target T1, HCV polymerase (NS5B570n-Con1) (Hepatitis C virus genotype 1b, UniProt Q9WMX2).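 Further: recombinant His-tagged enzyme from E. coli, radiolabeled nucleotide incorporation into acid-insoluble RNA read by scintillation after filtration, no-enzyme background subtracted, activity relative to positive control.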
T1 construct: contains a 21 amino acid deletion at the C-terminus relative to the full-length HCV polymerase; 6-histidine (N); made in house; host or cells: E. coli strain BL21(DE) pLysS (pET17b)
Put plainly: biochemical. Also on record: species or system HCV Con1 strain. To be noted: IC50 HCV NS5B RNA Polymerase Assay, values without asterisk; 20 nM NS5B570n-Con1 enzyme, 20 nM cIRES RNA template.

Take `Cc1ccc(-c2cc(C(C)(C)C)cc(/C=C/c3ccc(NS(C)(=O)=O)cc3)c2O)c(=O)[nH]1` [I-140]: the melting point was 258 to 260 °C. Besides, in data set [1], the IC50 is 322 nM.
`CC(C)(C)c1ccc(O)c(-c2ccc[nH]c2=O)c1` [I-2] had a melting point of 211 to 212 °C. This compound had a half-inhibitory concentration (IC50) in data set [1] of 3580 nM.
The corresponding values for `CCOc1cc(NS(C)(=O)=O)ccc1C(=O)Nc1cc(-c2ccc[nH]c2=O)cc(C(C)(C)C)c1OC` [I-115] are 290 to 292 °C and 9 nM.
The corresponding values for `CC(C)(C)c1cc(CCc2ccc(F)cc2)c(O)c(-c2ccc[nH]c2=O)c1` [I-20] are 178 to 179 °C and 378 nM.
The corresponding values for `Cc1cc(-c2cc(C)c[nH]c2=O)cc(C(C)(C)C)c1` [I-7] are 212 to 213 °C and 3260 nM.
In turn, `COc1ccc(-c2ccc[nH]c2=O)cc1C1(C)CC1` [I-61] came in with a melting point of 194 to 195 °C. Moreover, the IC50 in data set [1] turned out to be 1230 nM.
Compound `CC(C)(CO)c1cc(CCc2ccc(NS(C)(=O)=O)cc2)c(O)c(-c2ccc[nH]c2=O)c1` [I-199, N-(4-{2-[2-Hydroxy-5-(2-hydroxy-1,1-dimethyl-ethyl)-3-(2-oxo-1,2-dihydro-pyridin-3-yl)-phenyl]-ethyl}-phenyl)-methanesulfonamide] came in with a melting point of 118 to 120 °C. In data set [1], half-maximal inhibition (IC50) was put at 13 nM.
`COc1c(NC(=O)c2ccc(NS(C)(=O)=O)cc2)cc(-c2ccc[nH]c2=O)cc1C1(C)CC1` [I-82] registered a melting point of 254 to 256 °C. This compound also showed an IC50 in data set [1] of 6 nM.
The corresponding values for `COc1cc(-c2ccc[nH]c2=O)cc(C(C)(C)C)c1OC` [I-26] are 206.3 to 207.1 °C and 866 nM.
As for `CC(C)(C)c1cc(-c2ccc[nH]c2=O)ccc1OC(F)F` [I-6, 3-(3-tert-Butyl-4-difluoromethoxy-phenyl)-1H-pyridin-2-one], the melting point is 174 to 175 °C. In data set [1], this compound displayed an IC50 of 2570 nM.
The corresponding values for `CC(C)(C)c1cc(-c2ccc[nH]c2=O)cc(NC(=O)c2ccc(NS(C)(=O)=O)cc2)c1F` [I-73, N-[3-tert-Butyl-2-fluoro-5-(2-oxo-1,2-dihydro-pyridin-3-yl)-phenyl]-4-methanesulfonylamino-benzamide] are 286 to 288 °C and 54 nM.
Compound `COc1c(CC(CN)c2ccc(NS(C)(=O)=O)cc2)cc(-c2ccc[nH]c2=O)cc1C(C)(C)C` (centres unmarked) [I-191, N-(4-{1-Aminomethyl-2-[3-tert-butyl-2-methoxy-5-(2-oxo-1,2-dihydro-pyridin-3-yl)-phenyl]-ethyl}-phenyl)-methanesulfonamide] came in with a melting point of 158 to 160 °C. For the same compound, the half-maximal inhibitory concentration (IC50) in data set [1] was found to be 27 nM.
As to `COc1c(NC(=O)c2ccc(N)c(F)c2)cc(-c2ccc[nH]c2=O)cc1C(C)(C)C` [I-120], the melting point is 283 to 285 °C. In data set [1], this compound came in with a concentration for half-maximal inhibition (IC50) of 3 nM.
The corresponding values for `CC(C)(C)c1cc(Br)c(O)c(-c2ccc[nH]c2=O)c1` [I-13] are 243.4 to 246.2 °C and 360 nM.
On to `COc1c(O)cc(-c2ccc[nH]c2=O)cc1C(C)(C)C` [I-23], for which the melting point fell in the range of 214 to 215 °C. The compound further yielded a half-inhibitory concentration (IC50) in data set [1] of 1170 nM.
On to `CC(=O)Nc1c(CCc2ccc(NS(C)(=O)=O)cc2)cc(C(C)(C)C)cc1-c1ccc[nH]c1=O` [I-80, N-[4-tert-Butyl-2-[2-(4-methanesulfonylamino-phenyl)-ethyl]-6-(2-oxo-1,2-dihydro-pyridin-3-yl)-phenyl]-acetamide], for which the melting point is 180 to 182 °C. Besides, the IC50 in data set [1] amounted to 97 nM.
Take `COc1c(/C=C(\C#N)c2ccc(NS(C)(=O)=O)cc2)cc(-c2ccc[nH]c2=O)cc1C(C)(C)C` [I-138, N-(4-{(Z)-2-[3-tert-Butyl-2-methoxy-5-(2-oxo-1,2-dihydro-pyridin-3-yl)-phenyl]-1-cyano-vinyl}-phenyl)-methanesulfonamide]: the melting point fell in the range of 288 to 290 °C. Besides, half-maximal inhibition in data set [1] (IC50) was put at 10 nM.
The corresponding values for `CC(C)(C)c1cc(CCc2ccc(NS(C)(=O)=O)cc2)cc(-c2cc(F)c[nH]c2=O)c1` [I-94] are 191 to 193 °C and 10 nM.
As for `COc1c(CCc2ccc(NS(C)(=O)=O)cc2)cc(-c2ccc(C)[nH]c2=O)cc1C(C)(C)C` [I-64, N-(4-{2-[3-tert-Butyl-2-methoxy-5-(6-methyl-2-oxo-1,2-dihydro-pyridin-3-yl)-phenyl]-ethyl}-phenyl)-methanesulfonamide], the melting point was 239 to 241 °C. Further, the midpoint of inhibition in data set [1], the IC50, lay at 8 nM.
With `CC(C)(C)c1cc(CCc2ccc(NS(C)(=O)=O)cc2)c(N)c(-c2ccc[nH]c2=O)c1` [I-98, N-(4-{2-[2-Amino-5-tert-butyl-3-(2-oxo-1,2-dihydro-pyridin-3-yl)-phenyl]-ethyl}-phenyl)-methanesulfonamide], the melting point is 140 to 142 °C. The compound further had an IC50 in data set [1] of 7 nM.
The corresponding values for `COc1c(C(=O)Nc2ccc(NS(C)(=O)=O)cc2C)cc(-c2ccc[nH]c2=O)cc1C(C)(C)C` [I-69, 3-tert-Butyl-N-(4-methanesulfonylamino-2-methyl-phenyl)-2-methoxy-5-(2-oxo-1,2-dihydro-pyridin-3-yl)-benzamide] are 278 to 280 °C and 13 nM.
The compound `COc1c(CCC(=O)O)cc(-c2ccc[nH]c2=O)cc1C(C)(C)C` [I-22] had a melting point of 180.2 to 181.8 °C. Also, the half-maximal inhibitory concentration (IC50) in data set [1] turned out to be 330 nM.
With `COc1c(CCc2ccc(NS(C)(=O)=O)cn2)cc(-c2ccc[nH]c2=O)cc1C(C)(C)C` [I-124], the melting point is 131 to 133 °C. In addition, in data set [1], the IC50 is 3 nM.
`CC(C)(C)c1cc(CCc2ccc(NS(C)(=O)=O)cc2)c(C#N)c(-c2ccc[nH]c2=O)c1` [I-87, N-(4-{2-[5-tert-butyl-2-cyano-3-(2-oxo-1,2-dihydro-pyridin-3-yl)-phenyl]-ethyl}-phenyl)-methanesulfonamide]: the melting point lay within 128 to 130 °C. Further, 13 nM corresponded to half-maximal inhibition in data set [1] (IC50).
The corresponding values for `COc1c(C(=O)c2cccc(CNS(C)(=O)=O)c2)cc(-c2ccc[nH]c2=O)cc1C(C)(C)C` [I-65] are 110 to 115 °C and 30 nM.
As to `COc1c(C(=O)c2sccc2C)cc(-c2ccc[nH]c2=O)cc1C(C)(C)C` [I-57], the melting point was 123.3 to 125.5 °C. Also, the concentration for half-maximal inhibition (IC50) in data set [1] was determined as 61 nM.
The corresponding values for `COc1c(/C=C(\C)c2ccc(NS(C)(=O)=O)cc2)cc(-c2ccc[nH]c2=O)cc1C(C)(C)C` [I-139, N-(4-{(E)-2-[3-tert-Butyl-2-methoxy-5-(2-oxo-1,2-dihydro-pyridin-3-yl)-phenyl]-1-methyl-vinyl}-phenyl)-methanesulfonamide] are 292 to 294 °C and 8 nM.
Compound `CC(C)(C)c1cc(CO)c(O)c(-c2ccc[nH]c2=O)c1` [I-10] came in with a melting point of 167 to 168 °C. The 50% inhibitory concentration (IC50) in data set [1] is 1600 nM.
The corresponding values for `Cc1cc(C(C)(C)C)cc(-c2ccc[nH]c2=O)c1O` [I-11] are 207 to 208.5 °C and 340 nM.
The corresponding values for `COc1c(C(=O)c2cc(F)cc(F)c2)cc(-c2ccc[nH]c2=O)cc1C(C)(C)C` [I-52] are 197.1 to 198.6 °C and 143 nM.
`COc1c(C(=O)Nc2cccc(CNS(C)(=O)=O)c2)cc(-c2ccc[nH]c2=O)cc1C(C)(C)C` [I-112, 3-tert-Butyl-N-[3-(methanesulfonylamino-methyl)-phenyl]-2-methoxy-5-(2-oxo-1,2-dihydro-pyridin-3-yl)-benzamide] yielded a melting point of 145 to 147 °C. Further, in data set [1], it took 48 nM to reach half-maximal inhibition (IC50).
Take `CCOc1ccc(-c2ccc[nH]c2=O)cc1C(C)(C)C` [I-5]: the melting point was in the range of 201 to 202 °C. Moreover, half-maximal inhibition in data set [1] (IC50) required 4680 nM.
The corresponding values for `COc1c(C(=O)c2cccc(NS(C)(=O)=O)c2)cc(-c2ccc[nH]c2=O)cc1C(C)(C)C` [I-100, N-{3-[3-tert-Butyl-2-methoxy-5-(2-oxo-1,2-dihydro-pyridin-3-yl)-benzoyl]-phenyl}-methanesulfonamide] are 261 to 263 °C and 16 nM.
The corresponding values for `COc1c(CCc2ccc(NS(C)(=O)=O)nc2)cc(-c2ccc[nH]c2=O)cc1C(C)(C)C` [I-123] are 140 to 142 °C and 3 nM.
The corresponding values for `COc1ccc(-c2ccc[nH]c2=O)cc1C(C)(C)OC` [I-62] are 154 to 155 °C and 4130 nM.
`CC(C)(C)c1cc(CCc2ccc(NS(C)(=O)=O)cn2)c(C#N)c(-c2ccc[nH]c2=O)c1` [I-114, N-(6-{2-[5-tert-Butyl-2-cyano-3-(2-oxo-1,2-dihydro-pyridin-3-yl)-phenyl]-ethyl}-pyridin-3-yl)-methanesulfonamide] had a melting point of 143 to 145 °C. Also, in data set [1], the 50% inhibitory concentration (IC50) amounted to 15 nM.
The corresponding values for `COc1c(CCc2ccc(NS(C)(=O)=O)cc2C)cc(-c2ccc[nH]c2=O)cc1C(C)(C)C` [I-109, N-(4-{2-[3-tert-Butyl-2-methoxy-5-(2-oxo-1,2-dihydro-pyridin-3-yl)-phenyl]-ethyl}-3-methyl-phenyl)-methanesulfonamide] are 240 to 242 °C and 7 nM.
The compound `COc1c(CCc2ccc(NS(C)(=O)=O)c(F)c2)cc(-c2ccc[nH]c2=O)cc1C(C)(C)C` [I-103] yielded a melting point of 111 to 113 °C. For the same compound, inhibition in data set [1] was half-maximal at 8 nM (IC50).
The corresponding values for `COc1c(/C=C/c2ccccc2)cc(-c2ccc[nH]c2=O)cc1C(C)(C)C` [I-144] are 183 to 185 °C and 11 nM.
As for `COc1c(C(=O)c2cccc(N)c2)cc(-c2ccc[nH]c2=O)cc1C(C)(C)C` [I-59, 3-[3-(3-amino-benzoyl)-5-tert-butyl-4-methoxy-phenyl]-1H-pyridin-2-one], the melting point lay within 145 to 150 °C. Moreover, the IC50 in data set [1] is 9 nM.
